The results in this text go back to patent US20250388568A1, “NLRP3 INHIBITORS” (Kodiak Sciences Inc., priority 2022, published 2025).

Molecules are shown by their SMILES.

This assay has as its system IL-1β release in U937 cells after NLRP3 activation. Nature of the assay: IC50 determination of IL-1β release inhibition in U937 cells. In kind it is cell-based. The settings on record: Homo sapiens, U-937; PMA-differentiated U937 cells, LPS priming 5 h, nigericin; average of at least three experiments; read-out: IL-1β IC50 (nM) U937 cells. On the procedure: Example 79: IC50 Determination of IL-1β Release Inhibition in U937 Cells The compounds of the present disclosure were tested for their ability to inhibit the IL-1β release in the U937 cells after NLRP3 activation. U937 cells (U-97 CRL 1593.2) were thawed following ATCC's initial culture procedure. […] The growth medium was composed of RPMI1640 medium (Quality Biological 112-040-101), 10% serum (Corning 35-076-CV), Pen/Strep (GIBCO 15140-122), 10 mM Hepes (Quality Biological 118-089-721), 2 mM Glutamax (GIBCO 35050-061), and 100 μg/mL normocin (Invivogen ant-nr)-Differentiating media was prepared by adding Phorbol 12-myristate 13-acetate (PMA) (AdipoGen AG-CN2-0010-M005) to growth medium. A cell suspension was prepared with differentiating media at 500k cells/ml. With an electronic pipet, 200 ul of cell suspension was added to each well (96w white plate Corning 3903) leaving columns 1 and 2 empty. Plates were left in the biosafety cabinet for 15 min and then placed in incubator for 90 hours. Priming media was prepared with assay medium consisting of RPMI 1640 medium, 10 mM Hepes, 2 mM Glutamax and Pen/Strep plus 1 μg/mL LPS (Invivogen tlrl-3pelps). Differentiating media was manually removed and 80 ul of priming media was added to each well with an electronic pipet. The plates were placed in the incubator for 5 hours. […] DMSO). An hour prior to the end of LPS incubation, a separate 96 deep well plate, Plate B, was prepared with 400 μL of assay media per well, then […] of the stock DMSO solution from Plate A was added to each corresponding well. Plate B was covered to avoid media evaporation. In a 50 mL tube, a solution of nigericin in assay media at 50 uM/mL concentration was prepared. To a new 96 deep well plate, Plate C, 200 μL of this nigericin containing media was dispensed to each well and 1 μL of the test compounds from Plate B to each corresponding well was added. Plate C was covered to avoid media evaporation. After 5 hours of priming, all the media from the LPS treated U937 cells was removed manually. To this plate of primed cells, 80 μL/well test compounds from Plate B (assay media+compound) was added in duplicate columns (5 compounds tested per plate). The plate was placed in an incubator for 30 min. […] The plate was placed back in the incubator for 1 hour. At the end of 1 hour, the supernatant from this test plate was transferred to a new 96 well V bottom polypropylene plate which was frozen immediately at -80° C. The plate was transferred to -20° C. the next day and awaited further determination of cytokine IL-Ip level. The release of IL-1β into the cell media was determined by MSD® Multi-Spot Assay System (V-Plex, IL-1B kit, […]-4). Following the manufacture's protocol and using the Alternate Protocol 3, Dilute-In-Plate protocol specifically, the level of IL-IP in the above collected supernatant plate was measured as electrochemiluminescent signals. Using MSD DISCOVERY WORKBENCH® analysis software, the signals were converted to the concentration of IL-1β in each well. The IC50 values of the compounds were calculated using the Graph Pad Prism software based on the IL-1β concentration determined. The detection range of IL-1β using MSD kit was approximately […] (based on various lots of standards purchased from MSD).
As to `O=C(Nc1c2c(cc3c1CCC3)CCC2)NS(=O)(=O)c1cc(CN2CC(O)C2)co1` [Example 32, N-((1,2,3,5,6,7-hexahydro-s-indacen-4-yl)carbamoyl)-4-((3-hydroxyazetidin-1-yl)methyl)furan-2-sulfonamide], the IC50 (commonly the concentration needed to halve the response being measured) was in the range of 50 to 500 nM.

Take `Cc1cc(S(=O)(=O)NC(=O)Nc2c3c(c(F)c4c2CCC4)CCC3)oc1CN1C[C@@H](O)[C@@H](F)C1` [Example 53, N-((8-fluoro-1,2,3,5,6,7-hexahydro-s-indacen-4-yl)carbamoyl)-5-(((38,4R)-3-fluoro-4-hydroxypyrrolidin-1-yl)methyl)-4-methylfuran-2-sulfonamide]: the IC50 was in the range of 5 to 50 nM.

With `Cc1cc(S(=O)(=O)NC(=O)Nc2c3c(c(F)c4c2CCC4)CCC3)oc1CN1C[C@H](O)[C@@H](F)C1` [Example 56, N-((8-fluoro-1,2,3,5,6,7-hexahydro-s-indacen-4-yl)carbamoyl)-5-(((3S,4S)-3-fluoro-4-hydroxypyrrolidin-1-yl)methyl)-4-methylfuran-2-sulfonamide], the IC50 lay within 5 to 50 nM.

For the compound `Cc1oc(S(=O)(=O)NC(=O)Nc2c3c(c(Cl)c4c2CCC4)CCC3)cc1CN1CC[C@H](O)C1` [Example 49, (S)—N-((8-chloro-1,2,3,5,6,7-hexahydro-s-indacen-4-yl)carbamoyl)-4-((3-hydroxypyrrolidin-1-yl)methyl)-5-methylfuran-2-sulfonamide], the IC50 was in the range of 5 to 50 nM.

Regarding `Cc1cc(S(=O)(=O)NC(=O)Nc2c3c(c(F)c4c2CCC4)CCC3)oc1CN1C[C@@H](O)[C@H](F)C1` [Example 54, N-((8-fluoro-1,2,3,5,6,7-hexahydro-s-indacen-4-yl)carbamoyl)-5-(((3R,4R)-3-fluoro-4-hydroxypyrrolidin-1-yl)methyl)-4-methylfuran-2-sulfonamide], the concentration for half-maximal inhibition (IC50) is less than 5 nM.

Turning to `CN(C(=O)c1coc(S(=N)(=O)NC(=O)Nc2c3c(cc4c2CCC4)CCC3)c1)[C@H]1C[C@H](N)C1` (stereo partly shown) [Example 16], the IC50 was greater than 500 nM. To `Cc1oc(S(=O)(=O)NC(=O)Nc2c3c(c(F)c4c2CCC4)CCC3)cc1CN(C)CC1(CO)CCOCC1` [Example 46, N-((8-fluoro-1,2,3,5,6,7-hexahydro-s-indacen-4-yl)carbamoyl)-4-((((4-(hydroxymethyl)tetrahydro-2H-pyran-4-yl)methyl)(methyl)amino)methyl)-5-methylfuran-2-sulfonamide] belongs 5 to 50 nM; to `Cc1oc(S(=O)(=O)NC(=O)Nc2c3c(c(F)c4c2CCC4)CCC3)cc1CN1C[C@@H](F)[C@@H](O)C1` [Example 40, N-((8-fluoro-1,2,3,5,6,7-hexahydro-s-indacen-4-yl)carbamoyl)-4-(((3R,4S)-3-fluoro-4-hydroxypyrrolidin-1-yl)methyl)-5-methylfuran-2-sulfonamide], 5 to 50 nM; to `CN(C(=O)c1coc(S(=N)(=O)NC(=O)Nc2c3c(cc4c2CCC4)CCC3)c1)[C@H]1C[C@H](O)C1` (stereo partly shown) [Example 15, 5-(N-((1,2,3,5,6,7-hexahydro-s-indacen-4-yl)carbamoyl)sulfamidimidoyl)-N-((1r,3r)-3-hydroxycyclobutyl)-N-methylfuran-3-carboxamide], 5 to 50 nM. Turning to `N=S(=O)(NC(=O)Nc1c2c(cc3c1CCC3)CCC2)c1cc(CN)co1` (stereo not shown) [Example 22, 4-(aminomethyl)-N-((1,2,3,5,6,7-hexahydro-s-indacen-4-yl)carbamoyl)furan-2-sulfonimidamide], the half-inhibitory concentration (IC50) lay in the range of 5 to 50 nM. As to `CC(C)n1nc(S(=O)(=O)NC(=O)Nc2c3c(c(Cl)c4c2CCC4)CCC3)cc1CN(C)CC1(O)CCC1` [Example 69, N-((8-chloro-1,2,3,5,6,7-hexahydro-s-indacen-4-yl)carbamoyl)-5-((((1-hydroxycyclobutyl)methyl)(methyl)amino)methyl)-1-isopropyl-1H-pyrazole-3-sulfonamide], the IC50 fell in the range of 5 to 50 nM.

Take `CN(Cc1cc(S(=O)(=O)NC(=O)Nc2c3c(c(F)c4c2CCC4)CCC3)nn1C)CC1(CO)CCC1` [Example 65, N-((8-fluoro-1,2,3,5,6,7-hexahydro-s-indacen-4-yl)carbamoyl)-5-((((1-(hydroxymethyl)cyclobutyl)methyl)(methyl)amino)methyl)-1-methyl-1H-pyrazole-3-sulfonamide]: the half-inhibitory concentration (IC50) lay in the range of 5 to 50 nM. The value for `CC(C)n1nc(S(=O)(=O)NC(=O)Nc2c3c(c(F)c4c2CCC4)CCC3)cc1CN(C)CC1(O)CCC1` [Example 66, N-((8-fluoro-1,2,3,5,6,7-hexahydro-s-indacen-4-yl)carbamoyl)-5-((((1-hydroxycyclobutyl)methyl)(methyl)amino)methyl)-1-isopropyl-1H-pyrazole-3-sulfonamide] was less than 5 nM; that for `N=S(=O)(NC(=O)Nc1c2c(cc3c1CCC3)CCC2)c1cc(CO[C@H]2C[C@H](N)C2)co1` (stereo partly shown) [Example 18, 4-(((1r,3r)-3-aminocyclobutoxy)methyl)-N-((1,2,3,5,6,7-hexahydro-s-indacen-4-yl)carbamoyl)furan-2-sulfonimidamide] was 5 to 50 nM. `Cc1cc(S(=O)(=O)NC(=O)Nc2c3c(c(F)c4c2CCC4)CCC3)oc1CN1CC[C@@H](O)C1` [Example 52, (R)-N-((8-fluoro-1,2,3,5,6,7-hexahydro-s-indacen-4-yl)carbamoyl)-5-((3-hydroxypyrrolidin-1-yl)methyl)-4-methylfuran-2-sulfonamide]: the IC50 is 5 to 50 nM. As to `CC(C)n1nc(S(=O)(=O)NC(=O)Nc2c3c(c(F)c4c2CCC4)CCC3)cc1CN1CC[C@H](O)C1` [Example 67, (S)—N-((8-fluoro-1,2,3,5,6,7-hexahydro-s-indacen-4-yl)carbamoyl)-5-((3-hydroxypyrrolidin-1-yl)methyl)-1-isopropyl-1H-pyrazole-3-sulfonamide], the IC50 lay in the range of 5 to 50 nM. Consider `CN(Cc1cc(S(=O)(=O)NC(=O)Nc2c3c(c(Cl)c4c2CCC4)CCC3)nn1C)CC1(O)CCC1` [Example 68, N-((8-chloro-1,2,3,5,6,7-hexahydro-s-indacen-4-yl)carbamoyl)-5-((((1-hydroxycyclobutyl)methyl)(methyl)amino)methyl)-1-methyl-1H-pyrazole-3-sulfonamide], for which the IC50 was 5 to 50 nM. Take `CN(Cc1cc(S(=O)(=O)NC(=O)Nc2c3c(c(F)c4c2CCC4)CCC3)nn1C)CC1(CO)CCOCC1` [Example 64, N-((8-fluoro-1,2,3,5,6,7-hexahydro-S-indacen-4-yl)carbamoyl)-5-((((4-(hydroxymethyl)tetrahydro-2H-pyran-4-yl)methyl)(methyl)amino)methyl)-1-methyl-1H-pyrazole-3-sulfonamide]: the IC50 was in the range of 50 to 500 nM. With `N=S(=O)(NC(=O)Nc1c2c(cc3c1CCC3)CCC2)c1cc(CN2CC3(CC(O)C3)C2)co1` (stereo not shown) [Example 2, N-((1,2,3,5,6,7-hexahydro-s-indacen-4-yl)carbamoyl)-4-((6-hydroxy-2-azaspiro[3.3]heptan-2-yl)methyl)furan-2-sulfonimidamide], the half-maximal inhibitory concentration (IC50) was 50 to 500 nM. Consider `CN(C(=O)c1coc(S(=N)(=O)NC(=O)Nc2c3c(cc4c2CCC4)CCC3)c1)C1CNC1` (stereo not shown) [Example 17, N-(azetidin-3-yl)-5-(N-((1,2,3,5,6,7-hexahydro-s-indacen-4-yl)carbamoyl)sulfamidimidoyl)-N-methylfuran-3-carboxamide], for which the IC50 lay in the range of 50 to 500 nM. In the case of `N=S(=O)(NC(=O)Nc1c2c(cc3c1CCC3)CCC2)c1cc(C(=O)N2CC3(CC(O)C3)C2)co1` (stereo not shown) [Example 3, N-((1,2,3,5,6,7-hexahydro-s-indacen-4-yl)carbamoyl)-4-(6-hydroxy-2-azaspiro[3.3]heptane-2-carbonyl)furan-2-sulfonimidamide], the IC50 was in the range of 50 to 500 nM. For the compound `Cc1oc(S(=O)(=O)NC(=O)Nc2c3c(c(F)c4c2CCC4)CCC3)cc1CN(C)CC1(CO)CCC1` [Example 47, N-((8-fluoro-1,2,3,5,6,7-hexahydro-s-indacen-4-yl)carbamoyl)-4-((((1-(hydroxymethyl)cyclobutyl)methyl)(methyl)amino)methyl)-5-methylfuran-2-sulfonamide], the IC50 is 5 to 50 nM.
